Experimental data as given in patent US10426717B2, “Glycol esters of dicaffeoylquinic acid and uses thereof” (PLANT ADVANCED TECHNOLOGIES PAT, priority 2016, dated 2019).

Legend:
fibroblasts NHDFs [1] = experiment: Induction of a radical stress by the actives, ROS with H2DCFDA probe; assay type: cell-based, human; settings: fibroblasts treated with Trolox, normalised to MTS viability, vs 0.1% EtOH control
Description: The study has been made on human dermis fibroblasts NHDFs (ATCC, CRL-2522, origin: foreskin) cultured in single layer in DMEM medium (Invitrogen, 31885-049) containing 10% foetal calf serum (Invitrogen, 10270-106) and antibiotics (Penicillin/Streptomycin, Invitrogen, 15140-122). These cells have been maintained in a wet atmosphere at 37° C. containing 5% CO2. In order to validate the hypothesis of a hormetic effect, it has been checked beforehand that the treatment by the actives alone induced a radical stress. The test used is based on the use of the fluorescent probe H2DCFDA (2′-7′dichlorodihydrofluorescein diacetate, Fischer Scientific, #D399). The probe diffusion into the cell enables its acetate group to be cleaved by intracellular esterases. […] The production of free radicals can thus be quantised by the level of fluorescence emitted by the probe oxidised. […] After rinsing, the fluorescence emitted has been quantised (excitation: 485 nm; emission: 520 nm). In order to provide a result representative of the cellular population of each condition, a cellular viability test (MTS) has been made immediately after quantising the fluorescence emitted. The fluorescence values have thus been normalised with respect to the cellular viabilities.

[2] = tested on: human dermis fibroblasts NHDFs; experiment: Cytotoxicity study of the fractions, cell viability to MTS (Example 3); assay type: cell-based; settings: 24 h, 100, 50, 25, 12.5 and 6.25 μM, cytotoxicity threshold 80% viability
Description: (§1) The study has been made on human dermis fibroblasts NHDFs (ATCC, CRL-2522, origin: foreskin) at about 40% of their proliferative potential in vitro. These cells have been cultivated in single layer in DMEM medium (Invitrogen, 31885-049) containing 10% foetal calf serum (Invitrogen, 10270-106) and antibiotics (penicillin/streptomycin, Invitrogen, 15140-122). These cells have been maintained in a wet atmosphere at 37° C. containing 5% CO2.
In order to determine the optimum analysis concentration for the fractions, a preliminary experiment has been made on human dermis fibroblasts NHDFs having performed 30.3 population doublings. This study consisted in evaluating cell viability to MTS (3-(4,5-dimethythiazol-2-yl)-5-(3-carboxy-methoxyphenyl)-2-(4-sulphophenyl)-2H-tetrazolium) (Promega, G3581) after 24 h treatment for the 4 fractions, at 5 concentrations (100 μM, 50 μM, 25 μM, 12.5 μM, and 6.25 μM) and in culture triplicates (n=3). The fractions and extract have been prepared in DMSO and DPG70 respectively, the effect of these 2 vehicles has also been tested.
0.08% SDS (sodium dodecyl sulphate) has been used as a cytotoxicity positive control in order to validate the experiment.
In order to determine the optimum study concentration of the 4 fractions, a cytotoxicity study has been made on human dermis fibroblasts NHDFs, based on 5 concentrations after 24 h contact (n=3). The experimental parameters were identical to those used in the following for the study of the effects on the gene expression in terms of culture passages of the cells, confluence and contact time. The effect of the 2 vehicles (DPG70 and DMSO) has been tested in parallel.
The results have been compared to the untreated control and 0.08% SDS has been used as a cytotoxicity positive control in order to validate the experiment. The cytotoxicity threshold has been arbitrarily set to 80% viability.

fibroblasts NHDFs [3] = experiment: Real time qPCR of Nrf-2 regulated genes (Example 3); assay type: cell-based, human; settings: 24 h, fraction at 50 μM, vs 0.5% DMSO control
From the text: In order to determine which fraction of the extract according to the invention is responsible for this effect, the expression variations of seven target markers (involved in cellular and skin ageing induced by four fractions of an Ipomoea batatas root extract, and by the extract itself, in fibroblasts have been measured by qRT-PCR. A condition corresponding to fibroblasts NHDFs irradiated with UVA (10 J/cm^2) has been analysed in parallel as a positive control for the test.
The seven markers studied (HOMX1, NQO1, HSPA1A, GCLM, GSTP1, UGT1A6 and NOS2) are genes the expression of which is known to be regulated by the transcription factor Nrf-2, playing a major role in the antioxidant defence.
as §1
The extraction of total RNAs has been made using the RNeasy kit (Qiagen, 74106), after 24 h treatment with the fractions or 6 h after UVA irradiation. The cells have been rinsed with PBS and lysed in ad hoc buffer (culture triplicates have been made for each condition). The extraction and purification of the RNAs have been made according to the supplier's instructions. The total RNAs have been preserved at −80° C. afterwards.
The real time qPCR method has been used to quantise the expression of target markers in the different populations of RNAs. The specific TaqMan probes have been synthesised by the company Applied Biosystems.
The target sequences of the genes of interest have been amplified by PCR by using the “TaqMan Gene Expression Assays” (Applied Biosystems). […] The TaqMan probes have been grafted with a fluorophore (FAM) at the 5′ end of the sequence with a 3′ fluorescence quencher. […]

Row | SMILES | production of reactive oxygen species (ROS), radical stress (fibroblasts NHDFs [1]) | cytotoxicity (cell viability to MTS) [2] | overexpression of genes of interest (HMOX1, HSPA1A, NQO1, GCLM, GSTP1; FIGS. 7 to 11) (fibroblasts NHDFs [3])
1 | Cc1c(C)c2c(c(C)c1O)CCC(C)(C(=O)O)O2 (stereo not shown) [Trolox] | no radical stress | – | –
2 | O=C(/C=C/c1ccc(O)c(O)c1)OC1CC(O)(C(=O)O)CC(OC(=O)/C=C/c2ccc(O)c(O)c2)C1O (stereo not shown) [STL965, 3,5-DCQ (Isochlorogenic acid A)] | – | no cytotoxicity | do not induce an overexpression
3 | O=C(/C=C/c1ccc(O)c(O)c1)OC1CC(O)(C(=O)O)CC(O)C1OC(=O)/C=C/c1ccc(O)c(O)c1 (stereo not shown) [STL964, 3,4-DCQ (Isochlorogenic acid B)] | – | no cytotoxicity | do not induce an overexpression
4 | O=C(/C=C/c1ccc(O)c(O)c1)OC1CC(O)(C(=O)O)CC(O)C1OC(=O)/C=C/c1ccc(O)c(O)c1 (stereo not shown) [STL967, 4,5-DCQ (Isochlorogenic acid C)] | – | no cytotoxicity | do not induce an overexpression
